Laboratory results from publication PMC7475179, “Characterization of a caffeoyl-CoA O-methyltransferase-like enzyme involved in biosynthesis of polymethoxylated flavones in Citrus reticulata” (Journal of Experimental Botany, 2020).

System: CrOMT1
Test: MTase-Glo methyltransferase assay (SAH luminescence), Michaelis-Menten fit
Assay type: biochemical, Citrus reticulata
Settings: 2 mM SAM, 50 mM Tris-HCl pH 8.0, 37 °C, 30 min

Row | Structure (SMILES) | Km | further results
1 | O=c1cc(-c2ccccc2)oc2c(O)c(O)ccc12 [7,8-dihydroxyflavone] | – | Km (8-O-methylation): 1.8 ± 0.4 µM
2 | O=c1cc(-c2ccc(O)c(O)c2)oc2cc(O)cc(O)c12 [luteolin, 5,7,3',4'-tetrahydroxyflavone] | – | Km (3'-O-methylation): 3.1 ± 0.6 µM
3 | C[C@@H]1O[C@@H](O[C@H]2[C@H](Oc3cc(O)c4c(c3)O[C@H](c3ccc(O)c(O)c3)CC4=O)O[C@H](CO)[C@@H](O)[C@@H]2O)[C@H](O)[C@H](O)[C@H]1O [neoeriocitrin, eriodictyol-7-O-neohesperidoside] | 8.7 ± 1 µM | –
4 | C[C@@H]1O[C@@H](OC[C@H]2O[C@@H](Oc3cc(O)c4c(c3)O[C@H](c3ccc(O)c(O)c3)CC4=O)[C@H](O)[C@@H](O)[C@@H]2O)[C@H](O)[C@H](O)[C@H]1O [eriocitrin, eriodictyol-7-O-rutinoside] | 7.9 ± 1 µM | –
5 | O=c1cc(-c2ccccc2)oc2cc(O)c(O)c(O)c12 [baicalein] | – | Km (6-O-methylation): 3.3 ± 0.6 µM
6 | O=c1c(O)c(-c2cc(O)c(O)c(O)c2)oc2cc(O)cc(O)c12 [myricetin] | 23.8 ± 4.3 µM | –
7 | O=C1C[C@@H](c2ccc(O)c(O)c2)Oc2cc(O)cc(O)c21 [eriodictyol] | 61.8 ± 9.9 µM | –
8 | O=c1c(O)c(-c2ccc(O)c(O)c2)oc2cc(O)cc(O)c12 [quercetin] | 4.5 ± 0.8 µM | –

Second part, led by results:

Row | Km | Structure (SMILES) | further results
9 | 3.9 ± 0.5 µM | COc1c(-c2ccc(O)c(O)c2)oc2cc(O)cc(O)c2c1=O [quercetin 3-methyl ether] | –
10 | 0.6 µM | O=c1cc(-c2cc(O)c(O)c(O)c2)oc2cc(O)cc(O)c12 [tricetin] | –
11 | 248 µM | O=c1c(O)c(-c2ccc(O)cc2)oc2cc(O)cc(O)c12 [kaempferol] | –
